Drawing on patent US10975078B2, “Fused indazole pyridone compounds as antivirals” (priority 2017, dated 2021), this text covers EC50 for 22 compounds.

Where two headings read alike, the source gives them in different places.

In this assay the test system is HBsAg secretion, HepG2-Clone42 cells (Tet-inducible HBV-expressing, HBV ayw strain). As to the kind of experiment: HBsAg assay (HBsAg ELISA, secreted HBV sAg from HepG2-Clone42 cells). Type of assay: cell-based. The procedure: HepG2-Clone42, a Tet-inducible HBV-expressing cell line with a stably integrated 1.3 mer copy of the HBV ayw strain, was generated based on the Tet-inducible HepAD38 cell line with slight modifications. Ladner S K, et al., Antimicrobial Agents and Chemotherapy. 41(8):1715-1720 (1997). HepG2-Clone42 cells were cultured in DMEM/F-12+Glutamax™ (Life Technologies, Carlsbad, Calif., USA), supplemented with 10% fetal bovine serum (Life Technologies), G-418 (Corning, Manassas, Va., USA) at a final concentration of 0.5 mg/mL, and 5 μg/mL Doxycycline (Sigma, St. Louis, Mo., USA) and maintained in 5% CO2 at 37° C.
HepG2-Clone42 cells were seeded into black clear-bottom 96-well plates at a concentration of 6.0×10^4 cells/well. 24 hours post-seeding, the cells were treated with 200 μl/well of media containing five-fold serial dilutions of compounds in DMSO. DMSO alone was used as the no drug control. The final DMSO concentration in all wells was 0.5%.
The HBsAg ELISA kit (Alpha Diagnostic International, San Antonio, Tex., USE, Catalog #4110) was used to determine the level (semi-quantitative) of secreted HBV sAg. The HBSAg ELISA assay was performed following the manufacturer's protocol as described.
Step 1. Pipet 100 μL each of compound or DMSO treated samples into HBsAg ELISA plates. Seal plates and incubate at room temp for 60 minutes.
Step 2. Aspirate samples and wash three times with Wash Buffer. Dispense 100 μL of antibody-HRP conjugate to each well. Incubate at room temp for 30 minutes.
Step 3. Aspirate samples and wash three times with Wash Buffer. Add 100 μL of TMB Substrate to all wells and incubate 15 minutes at room temp.
Step 4. Dispense 100 μL of Stop Solution to each well. Measure absorbance of ELISA plate at 450 nm.
Dose-response curves were generated and the EC50 value was defined as the compound concentration at which HBsAg secretion was reduced 50% compared to the DMSO control.
EC50 values were determined as follows:
Determine the percent of HBsAg secretion inhibition. Calculate the percent inhibition on of HBsAg secretion inhibition using the following equation: […]
where XC is the absorbance signal from compound-treated well; MB is average absorbance signal (background signal) for column 12 (no cells+HBsAg ELISA sample buffer) and MD is average absorbance signal from DMSO-treated wells. Then calculate EC50 values by non-linear regression using a four parameter curve logistic equation.
The curve fit model employed is XLFit Dose Response One Site Model 204: y=(A+((B−A)/(1+(10^((C−x)*D))))) where A is the minimum y value, B is the maximum y value, C is the log EC50 value, and D is the slope factor. In the following table+≥100 nM; 100 nM>++≥1 nM; 1 nM>+++
(In general: ELISA stands for enzyme-linked immunosorbent assay.)

Where [1] appears, read: read-out: HBsAg, EC50 = concentration at which HBsAg secretion was reduced 50% compared to DMSO control.
[2] abbreviates: Hepatitis B virus, read-out: HBsAg (nM), EC50 = concentration at which HBsAg secretion was reduced 50% compared to DMSO control.

Turning to `COc1cccc2nn3c(c12)-c1cc(=O)c(C(=O)O)cn1C(C(C)(C)C)C3` (single isomer, unassigned) [Example 1.4-I, 6-(tert-butyl)-13-methoxy-2-oxo-6,7-dihydro-2H-pyrido[2′,1′:3,4]pyrazino[1,2-b]indazole-3-carboxylic acid], the EC50 under setting [1] was over 100 nM.

On to `COCCOc1cccc2c3n(nc12)C1CCC(C)(C)C1n1cc(C(=O)O)c(=O)cc1-3` (single isomer, unassigned) [Example 6.2-I, 12-(2-methoxyethoxy)-3,3-dimethyl-7-oxo-2,3,3a,14a-tetrahydro-1H,7H-cyclopenta[5,6]pyrido[2′,1′:3,4]pyrazino[1,2-b]indazole-6-carboxylic Acid], for which, under setting [2], the EC50 lay within 1 to 100 nM.

Turning to `COCCCOc1cccc2c3n(nc12)CC(C(C)(C)COC)n1cc(C(=O)O)c(=O)cc1-3` (single isomer, unassigned) [Example 7.1-II, 6-(1-methoxy-2-methylpropan-2-yl)-10-(3-methoxypropoxy)-2-oxo-6,7-dihydro-2H-pyrido[2′,1′:3,4]pyrazino[1,2-b]indazole-3-carboxylic Acid], the EC50 under setting [1] was under 1 nM.

Regarding `COc1cccc2c3n(nc12)C1CCC(C)(C)C1n1cc(C(=O)O)c(=O)cc1-3` (single isomer, unassigned) [Example 5.1-II, 12-methoxy-3,3-dimethyl-7-oxo-2,3,3a,14a-tetrahydro-1H,7H-cyclopenta[5,6]pyrido[2′,1′:3,4]pyrazino[1,2-b]indazole-6-carboxylic Acid], under setting [1], the EC50 was over 100 nM.

For the compound `CC(C)(C)C1Cn2nc3c(OCC4CC(F)(F)C4)cccc3c2-c2cc(=O)c(C(=O)O)cn21` (racemic) [Example 2.39, 6-(tert-butyl)-10-((3,3-difluorocyclobutyl)methoxy)-2-oxo-6,7-dihydro-2H-pyrido[2′,1′:3,4]pyrazino[1,2-b]indazole-3-carboxylic Acid], the EC50 under setting [2] is under 1 nM.

For `CC(C)(C)C1Cn2nc3c(OCC4CCCO4)cccc3c2-c2cc(=O)c(C(=O)O)cn21` (stereo not shown) [Example 2.25, 6-(tert-butyl)-2-oxo-10-((tetrahydrofuran-2-yl)methoxy)-6,7-dihydro-2H-pyrido[2′,1′:3,4]pyrazino[1,2-b]indazole-3-carboxylic Acid], under setting [2], the EC50 was in the range of 1 to 100 nM.

For `CC(C)(C)C1Cn2nc3c(OCCF)cccc3c2-c2cc(=O)c(C(=O)O)cn21` (racemic) [Example 2.41, 6-(tert-butyl)-10-(2-fluoroethoxy)-2-oxo-6,7-dihydro-2H-pyrido[2′,1′:3,4]pyrazino[1,2-b]indazole-3-carboxylic Acid], the EC50 under setting [2] was under 1 nM.

For the compound `CC(C)(C)C1Cn2nc3c(OCCC(F)(F)F)cccc3c2-c2cc(=O)c(C(=O)O)cn21` (racemic) [Example 2.40, 6-(tert-butyl)-2-oxo-10-(3,3,3-trifluoropropoxy)-6,7-dihydro-2H-pyrido[2′,1′:3,4]pyrazino[1,2-b]indazole-3-carboxylic Acid], the EC50 under setting [2] was under 1 nM.

Regarding `COCC1(COc2cccc3c4n(nc23)CC(C(C)(C)C)n2cc(C(=O)O)c(=O)cc2-4)CCC1` (stereo not shown) [Example 2.4, 6-(tert-butyl)-10-((1-(methoxymethyl)cyclobutyl)methoxy)-2-oxo-6,7-dihydro-2H-pyrido[2′,1′:3,4]pyrazino[1,2-b]indazole-3-carboxylic Acid], the EC50 under setting [2] is over 100 nM.

For `COCC(C)Oc1cccc2c3n(nc12)CC(C(C)(C)C)n1cc(C(=O)O)c(=O)cc1-3` (single isomer, unassigned) [Example 2.35-II, 6-(tert-butyl)-10-((1-methoxypropan-2-yl)oxy)-2-oxo-6,7-dihydro-2H-pyrido[2′,1′:3,4]pyrazino[1,2-b]indazole-3-carboxylic Acid], the EC50 under setting [1] lay within 1 to 100 nM.

In the case of `CC(C)(C)C1Cn2nc3c(OC4COC4)cccc3c2-c2cc(=O)c(C(=O)O)cn21` (racemic) [Example 2.26, 6-(tert-butyl)-10-(oxetan-3-yloxy)-2-oxo-6,7-dihydro-2H-pyrido[2′,1′:3,4]pyrazino[1,2-b]indazole-3-carboxylic Acid], under setting [2], the EC50 lay in the range of 1 to 100 nM.

For `COc1cccc2c3n(nc12)C1COC(C)(C)C1n1cc(C(=O)O)c(=O)cc1-3` (single isomer, unassigned) [Example 10.1-I, 12-methoxy-3,3-dimethyl-7-oxo-1,3,3a,14a-tetrahydro-7H-furo[3′,4′:5,6]pyrido[2′,1′:3,4]pyrazino[1,2-b]indazole-6-carboxylic Acid], the EC50 under setting [1] was over 100 nM.

Regarding `CCOCCCOc1cccc2c3n(nc12)CC(C(C)(C)C)n1cc(C(=O)O)c(=O)cc1-3` (racemic) [Example 2.14, 6-(tert-butyl)-10-(3-ethoxypropoxy)-2-oxo-6,7-dihydro-2H-pyrido[2′,1′:3,4]pyrazino[1,2-b]indazole-3-carboxylic Acid], the EC50 under setting [2] was under 1 nM.

Consider `CC(C)(C)C1Cn2nc3c(OCC4CCOCC4)cccc3c2-c2cc(=O)c(C(=O)O)cn21` (racemic) [Example 2.44, 6-(tert-butyl)-2-oxo-10-((tetrahydro-2H-pyran-4-yl)methoxy)-6,7-dihydro-2H-pyrido[2′,1′:3,4]pyrazino[1,2-b]indazole-3-carboxylic Acid], for which, under setting [2], the EC50 lay in the range of 1 to 100 nM.

As to `CC(C)OCCOc1cccc2c3n(nc12)CC(C(C)(C)C)n1cc(C(=O)O)c(=O)cc1-3` (racemic) [Example 2.15, 6-(tert-butyl)-10-(2-isopropoxyethoxy)-2-oxo-6,7-dihydro-2H-pyrido[2′,1′:3,4]pyrazino[1,2-b]indazole-3-carboxylic Acid], the EC50 under setting [2] is under 1 nM.

Turning to `COCCOc1cccc2c3n(nc12)CC(C(C)(C)C)n1cc(C(=O)O)c(=O)cc1-3` (single isomer, unassigned) [Example 2.2-II, 6-(tert-butyl)-10-(2-methoxyethoxy)-2-oxo-6,7-dihydro-2H-pyrido[2′,1′:3,4]pyrazino[1,2-b]indazole-3-carboxylic Acid], under setting [1], the EC50 is under 1 nM.

For the compound `COCC(COc1cccc2c3n(nc12)CC(C(C)(C)C)n1cc(C(=O)O)c(=O)cc1-3)OC` (racemic) [Example 2.13, 6-(tert-butyl)-10-(2,3-dimethoxypropoxy)-2-oxo-6,7-dihydro-2H-pyrido[2′,1′:3,4]pyrazino[1,2-b]indazole-3-carboxylic Acid], the EC50 under setting [2] lay within 1 to 100 nM.

For `COc1ccc2c3n(nc2c1)CC(C(C)(C)C)n1cc(C(=O)O)c(=O)cc1-3` (single isomer, unassigned) [Example 1.2-II, 6-(tert-butyl)-11-methoxy-2-oxo-6,7-dihydro-2H-pyrido[2′,1′:3,4]pyrazino[1,2-b]indazole-3-carboxylic acid], the EC50 under setting [1] was 1 to 100 nM.

On to `COc1cccc2c3n(nc12)C1CCC(C)(C)C1n1cc(C(=O)O)c(=O)cc1-3` (single isomer, unassigned) [Example 5.1-I, 12-methoxy-3,3-dimethyl-7-oxo-2,3,3a,14a-tetrahydro-1H,7H-cyclopenta[5,6]pyrido[2′,1′:3,4]pyrazino[1,2-b]indazole-6-carboxylic Acid], for which the EC50 under setting [1] was under 1 nM.

Take `CC(C)(C)C1Cn2nc3c(OCCOCC(F)(F)F)cccc3c2-c2cc(=O)c(C(=O)O)cn21` (stereo not shown) [Example 2.3, 6-(tert-butyl)-2-oxo-10-(2-(2,2,2-trifluoroethoxy)ethoxy)-6,7-dihydro-2H-pyrido[2′,1′:3,4]pyrazino[1,2-b]indazole-3-carboxylic Acid]: the EC50 under setting [2] was under 1 nM.

For `CC(C)(C)C1Cn2nc3c(OCC(O)CO)cccc3c2-c2cc(=O)c(C(=O)O)cn21` (racemic) [Example 2.28, 6-(tert-butyl)-10-(2,3-dihydroxypropoxy)-2-oxo-6,7-dihydro-2H-pyrido[2′,1′:3,4]pyrazino[1,2-b]indazole-3-carboxylic Acid], the EC50 under setting [2] was over 100 nM.

As for `COc1ccc2nn3c(c2c1)-c1cc(=O)c(C(=O)O)cn1C(C(C)(C)C)C3` (single isomer, unassigned) [Example 1.3-II, 6-(tert-butyl)-12-methoxy-2-oxo-6,7-dihydro-2H-pyrido[2′,1′:3,4]pyrazino[1,2-b]indazole-3-carboxylic acid], the EC50 under setting [2] fell in the range of 1 to 100 nM.
